Results from patent US20240003908A1, “POLYOL BIOMARKERS FOR CONGENITAL DISORDERS OF GLYCOSYLATION” (Mayo Foundation for Medical Education and Research, priority 2020, published 2024).
“And” between values parts separate entries of the source, which are not always exact repeats. Identical values can stand only once.

Experiments:
LAMP-2 = LAMP-2 protein (immunoblot) and mRNA (RT-qPCR) in PMM-deficient fibroblasts; assay type: cell-based, human; settings: 10 μM epalrestat
Text: Effect of epalrestat on glycosylation biomarkers in vitro: Immunoblotting and RT-qPCR were used to measure Intercellular Adhesion Molecule 1 (ICAM-1) and Lysosomal Associated Membrane Protein 2 (LAMP-2) protein and mRNA expression levels, respectively, as cellular markers of N-glycosylation (Ferrer et al., Mol Genet Metab 131:424-429, 2020; He et al., J Biol Chem 287:18210-18217, 2012; Eskelinen, Mol Aspects Med 27:495-502, 2006; and Radenkovic et al., Mol Genet Metab 132:27-37, 2021) in 10 PMM-deficient fibroblast lines (P1-P6, P8, P17, P19, and P24) and in control fibroblasts, treated with 10 μM epalrestat (the optimal dose based on PMM enzyme activity as described above).

urine sorbitol = test: Urine sorbitol (GC/MS) in a PMM2-CDG pediatric patient on oral epalrestat therapy; assay type: in vivo, human
Experimental: Clinical studies: Epalrestat was used as an N of 1 study for a single pediatric patient with PMM2-CDG. An open label, single patient compassionate use study designed to assess the safety and tolerability of oral epalrestat therapy in a child with PMM2-CDG. The patient received […]. Concomitant medications, vital signs, blood draw for serum chemistry and hematology, and blood levels of epalrestat were collected at each study visit during a 6 month period to evaluate the safety and tolerability of oral epalrestat therapy in a child with PMM2-CDG. The Nijmegen Pediatric CDG Rating Scale (NPCRS) assessment was administered at the start of the study and at 6 months. Urine polyols were collected at the start, at 4 months, and at 6 months of therapy, and were measured as described elsewhere (Jansen et al., Clin Chim Acta 1986, 157:277-294). Briefly, 200 μl urine specimens were spiked with a mixture of labeled internal standards, allowed to equilibrate, and evaporated. […] Specimens were analyzed by GC/MS, selected ion monitoring using ammonia chemical ionization and a stable isotope dilution method. In general, the following protocol was used: • Creatinine (CR) values (mg/dL) were determined for all samples. • Multiplication factors were calculated for each patient sample. • 100 μL of Polyol QC Mix for the QC Standard and 100 μL water were pipetted into a labeled 16×100 screw-cap glass tube. • 200 μL each of low control and high control were pipetted into corresponding labeled 16×100 mm screw-cap glass tubes. • 200 μL of each patient sample was pipetted into a corresponding labeled 16×100 mm screw cap glass tube. […]
Urine sorbitol and mannitol levels also were quantified using similar processing of samples and GC/MS settings, monitoring ions specific for sorbitol and mannitol for peak area ratio calculations.
Patient assessment: Prior to the first dose of epalrestat and at 1, 2, 3, 6, 8, 9, 12 months during treatment, concomitant medications and vital signs were recorded and the patient was evaluated using the NPCRS. […]

CC(/C=C1\SC(=S)N(CC(=O)O)C1=O)=C\c1ccccc1 [epalrestat]
LAMP-2 mRNA expression (LAMP-2): no effect | urine sorbitol level (urine sorbitol; 6 months of epalrestat therapy, prior to treatment 19.93, controls <5): 6.2 mmol/mol creatinine and 6.20 mmol/mol creatinine | urine sorbitol level (urine sorbitol; after 3 months of epalrestat therapy, before therapy 19.93, controls <5): 5.78 mmol/mol creatinine | urine sorbitol level (urine sorbitol; after 4 months of epalrestat treatment, prior to treatment 19.93, controls <5): 5.0 mmol/mol creatinine
